SMILES strings stand for the structures.

This assay addresses T1, hASCT2 (Homo sapiens, UniProt Q15758).
T1 construct: expressed in transfected cells; host or cells: HEK293 (ATCC CRL-11268), transient transfection
T1 sequence (Q15758 1-541): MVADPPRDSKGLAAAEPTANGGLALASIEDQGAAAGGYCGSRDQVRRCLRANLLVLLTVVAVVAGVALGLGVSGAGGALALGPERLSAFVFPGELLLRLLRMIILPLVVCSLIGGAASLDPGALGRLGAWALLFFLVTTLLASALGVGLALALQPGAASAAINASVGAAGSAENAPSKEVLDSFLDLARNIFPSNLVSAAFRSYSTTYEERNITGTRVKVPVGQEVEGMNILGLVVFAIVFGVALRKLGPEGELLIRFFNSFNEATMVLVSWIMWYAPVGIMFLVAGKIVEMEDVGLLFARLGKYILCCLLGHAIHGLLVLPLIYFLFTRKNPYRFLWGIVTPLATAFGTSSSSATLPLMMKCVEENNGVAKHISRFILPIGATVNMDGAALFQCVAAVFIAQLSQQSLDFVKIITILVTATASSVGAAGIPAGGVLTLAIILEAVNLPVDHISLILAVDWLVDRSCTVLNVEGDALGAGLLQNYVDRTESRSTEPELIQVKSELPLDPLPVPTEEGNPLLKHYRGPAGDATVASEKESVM
Briefly: Glutamine transport assay in proteoliposomes reconstituted with purified hASCT2. The note with it: in the presence of 5 µM glutamine; read-out: IC50, inhibition of glutamine uptake in proteoliposomes. In kind it is biochemical. An excerpt: Our computational models predicted Lc-BPE as a competitive inhibitor targeting the substrate binding site. To test this prediction, we performed electrophysiological competition experiments in the presence of varying concentrations of the substrate, L-alanine. The results were consistent with a competitive inhibition mechanism (SI Appendix, Fig. S4). At low inhibitor concentrations, the alanine-induced currents were inward, as expected from transported substrates, indicative of the inability of Lc-BPE to displace alanine from the binding site. However, as inhibitor concentration increased, the currents became outwardly directed in a dose-dependent manner, which marked the displacement of alanine by the inhibitor (SI Appendix, Fig. S5). The apparent Ki increased as a function of the alanine concentration, as anticipated for a competitive mechanism (SI Appendix, Figs. S5 and S6). […] We further tested the inhibitory activity of Lc-BPE in a cell-free transport assay in proteoliposomes, where purified and reconstituted hASCT2 catalyzes the exchange of intracellular nonlabeled L-glutamine with extracellular radioactive-labeled L-glutamine. We observed a dose-dependent inhibition of glutamine transport when Lc-BPE was added externally, which confirms that this compound is an hASCT2 inhibitor with a half-maximum inhibitory concentration (IC50) value of 20 µM in the presence of 5 µM glutamine (Fig. 2D).
Dilutions to working concentrations were made using external buffer. The highest […]
cells. For rASCT2, hASCT2 and hASCT1, external buffer contained 140 mM NaCl, 2 mM MgCl2, 2 mM CaCl2, and 10 mM HEPES, pH 7.40 while internal pipette solution comprised of 130 mM NaSCN, 2 mM MgCl2, 10 mM EGTA, 10 mM HEPES and 10mM alanine, pH 7.40. […] Current s traces were recorded using an Adams and List EPC7 amplifier and digitized using a Molecular Devices Digidata A/D converter.
Data analysis was performed as described previously 46. Linear and nonlinear curve fitting of the experimental data were analyzed using MicroCal Origin software. […]
Broadly, the IC50 is the concentration that gives 50% inhibition. With `N[C@@H](COC(=O)c1ccc(NC(=O)c2ccccc2)cc1)C(=O)O` [ERA-21], the concentration for half-maximal inhibition (IC50) amounted to 56 µM.

`O=C(O[C@H]1CN[C@H](C(=O)O)C1)c1ccc(C(=O)c2ccccc2)cc1` [ERA-35]: the IC50 turned out to be 411 µM.

In the case of `O=C(O[C@@H]1CN[C@H](C(=O)O)C1)c1ccc(-c2ccccc2)cc1` [Lc-BPE, L-cis hydroxyproline biphenyl ester], the half-maximal inhibitory concentration (IC50) worked out at 20 µM.

These data come from PMC8449414, “Rational design of ASCT2 inhibitors using an integrated experimental-computational approach” (Proceedings of the National Academy of Sciences of the …, 2021).
